Assay results: ChEMBL document CHEMBL1141697, “Promising core structure for nuclear receptor ligands: design and synthesis of novel estrogen receptor ligands based on diphenylamine skeleton” (Bioorg Med Chem Lett, 2008)
Calls of active or inactive are those of the source. No cut-off for these calls is given here.

Assays:
[1] = test system: MCF7; assay: Antiestrogenic activity in human MCF7 cells; format: functional, cell-based
[2] = molecular target: T1, Estrogen receptor (Homo sapiens) (UniProt P03372); assay: Displacement of [2,4,6,7-3H]17beta-estradiol from human recombinant ERalpha receptor by liquid scintillation counter relative to 17-beta-estradiol
T1 sequence (whole entry): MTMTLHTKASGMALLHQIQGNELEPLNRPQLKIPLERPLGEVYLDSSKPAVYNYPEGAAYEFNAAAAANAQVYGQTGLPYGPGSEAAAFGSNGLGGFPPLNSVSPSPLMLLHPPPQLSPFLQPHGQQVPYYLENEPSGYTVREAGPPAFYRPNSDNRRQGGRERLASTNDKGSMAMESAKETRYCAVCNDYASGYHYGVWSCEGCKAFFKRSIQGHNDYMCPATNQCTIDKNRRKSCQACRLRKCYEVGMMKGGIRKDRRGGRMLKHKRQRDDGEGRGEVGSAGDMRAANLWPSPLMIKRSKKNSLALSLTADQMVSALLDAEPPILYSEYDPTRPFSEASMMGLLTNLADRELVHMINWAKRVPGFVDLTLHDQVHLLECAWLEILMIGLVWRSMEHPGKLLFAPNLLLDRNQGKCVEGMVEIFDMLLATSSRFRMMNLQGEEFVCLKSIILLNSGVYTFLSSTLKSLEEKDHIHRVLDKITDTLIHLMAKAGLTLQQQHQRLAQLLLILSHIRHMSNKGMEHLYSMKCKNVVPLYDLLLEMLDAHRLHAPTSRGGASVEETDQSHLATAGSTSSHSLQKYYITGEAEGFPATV

[3] = test system: MCF7; assay: Estrogenic activity in human MCF7 cells assessed as cell proliferation after 6 days by WST8 assay
[4] = molecular target: Estrogen receptor beta (Homo sapiens) (UniProt Q92731); assay: Displacement of [2,4,6,7-3H]17beta-estradiol from human recombinant ERbeta receptor by liquid scintillation counter relative to 17-beta-estradiol
Estrogen receptor beta (Homo sapiens), sequence (Q92731 whole entry): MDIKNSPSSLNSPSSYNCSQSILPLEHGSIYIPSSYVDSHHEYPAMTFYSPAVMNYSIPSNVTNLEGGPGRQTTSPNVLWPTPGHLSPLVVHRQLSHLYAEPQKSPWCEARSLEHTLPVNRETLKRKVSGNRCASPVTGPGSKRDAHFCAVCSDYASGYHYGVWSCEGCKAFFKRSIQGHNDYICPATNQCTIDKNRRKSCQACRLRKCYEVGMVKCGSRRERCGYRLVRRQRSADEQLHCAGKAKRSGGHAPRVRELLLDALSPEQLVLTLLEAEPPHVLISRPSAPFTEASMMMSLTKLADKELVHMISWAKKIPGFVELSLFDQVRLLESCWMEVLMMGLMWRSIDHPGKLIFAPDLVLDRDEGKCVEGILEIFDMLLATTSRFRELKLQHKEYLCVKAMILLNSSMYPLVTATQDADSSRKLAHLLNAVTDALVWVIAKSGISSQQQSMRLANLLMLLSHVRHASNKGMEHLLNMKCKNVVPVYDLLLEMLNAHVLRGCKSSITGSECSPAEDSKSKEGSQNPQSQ

[5] = test system: MCF7; assay: Estrogenic activity in human MCF7 cells assessed as cell proliferation after 6 days by WST8 assay relative to 17-beta-estradiol; format: functional
[6] = test system: MCF7; assay: cells; conditions: Homo sapiens, MCF7, 144 h
[7] = species: Homo sapiens; assay: Selectivity ratio of relative binding affinity for human recombinant ERalpha receptor to relative binding affinity for human recombinant ERbeta receptor

SMILES	Activity [1]	relative binding affinity (RBA) [2]	Activity [3]	relative binding affinity (RBA) [4]	Activity [5]	EC50 [6] [nM]	Ratio [7]
CC(C)N(c1ccc(O)cc1)c1ccc(O)cc1	inactive	< 0.001	inactive	< 0.001	–	–	–
Oc1ccc(N(CC23CC4CC(CC(Br)(C4)C2)C3)c2ccc(O)cc2)cc1	inactive	0.551	–	0.565	77	11000	1.02
CS(=O)(=O)N(c1ccc(O)cc1)c1ccc(O)cc1	inactive	< 0.001	–	< 0.001	213	6900	–
Oc1ccc(N(CC2CCCCC2)c2ccc(O)cc2)cc1	inactive	0.89	–	6.7	109	210	7.52
Oc1ccc(Nc2ccc(O)cc2)cc1	inactive	< 0.001	inactive	< 0.001	–	–	–
Oc1ccc(N(c2ccc(O)cc2)C2CCCCC2)cc1	inactive	1.13	–	4.3	64	590	3.8
CCCCCCN(c1ccc(O)cc1)c1ccc(O)cc1	inactive	0.153	–	0.102	130	11	0.667
O=S(=O)(c1ccccc1)N(c1ccc(O)cc1)c1ccc(O)cc1	inactive	0.04	–	< 0.001	98	63	–
O=C(c1ccccc1)N(c1ccc(O)cc1)c1ccc(O)cc1	inactive	0.193	–	1.26	114	14	6.52
Oc1ccc(N(CC2CC2)c2ccc(O)cc2)cc1	inactive	0.054	–	< 0.001	–	–	–
CN(c1ccc(O)cc1)c1ccc(O)cc1	inactive	< 0.001	inactive	< 0.001	–	–	–
Oc1ccc(N(CCC2CCCCC2)c2ccc(O)cc2)cc1	inactive	3.64	–	6.84	71	500	1.88
O=S(=O)(c1ccc(O)cc1)N(c1ccc(O)cc1)c1ccc(O)cc1	inactive	0.352	–	0.004	99	12	0.011
Oc1ccc(CN(c2ccc(O)cc2)c2ccc(O)cc2)cc1	inactive	4.26	–	4.05	42	370	0.951
CC(C)CCN(c1ccc(O)cc1)c1ccc(O)cc1	inactive	0.129	–	2.34	31	570	18.1
O=C(c1ccc(O)cc1)N(c1ccc(O)cc1)c1ccc(O)cc1	inactive	0.336	–	0.063	240	5.2	0.188
Oc1ccc(N(Cc2ccccc2)c2ccc(O)cc2)cc1	inactive	0.655	–	18.1	85	67	27.7
Oc1ccc(N(c2ccccc2)c2ccc(O)cc2)cc1	inactive	1.29	–	1.91	87	120	1.48
CC(=O)N(c1ccc(O)cc1)c1ccc(O)cc1	inactive	< 0.001	–	< 0.001	114	43000	–
